We go through one compound from patent US9345793B2, “Compounds for binding to the platelet specific glycoprotein IIB/IIIA and their use for imaging of thrombi” (PIRAMAL IMAGING SA, priority 2011, dated 2016).

Values joined by “and” are separate entries in the source; they are usually repeats but may differ in a detail not shown here. Equal entries are not always repeated. “Also recorded” adds a separate entry of the source.

Data set [1] can be described thus: Blood clearance in a cynomolgus monkey (PET and gamma counter). The format is in vivo. As to the method:
Blood kinetics of the compound described in example 40 in cynomolgus monkey. PET-imaging was performed continuously from shortly before up to 60 minutes post injection. Venous blood samples were taken at 3, 10, 30 and 60 minutes p.i. and were measured in a gamma-counter (Automatic Gamma Counter Wizard^2 3, Perkin Elmer) and expressed as cpm/mg blood. Additionally, the blood-concentration of the compound was measured from the PET-Image over the whole imaging period and expressed as % ID/g.
The blood clearance of the compound described in example 40 has been determined in a cynomolgus monkey. A female cynomolgus monkey was anesthetized with a mixture of Xylazin (Rompun®, Bayer HealthCare, Leverkusen, Germany), 0.12 mL/kg bodyweight and Ketamine (Ketavet®, Pfizer) 0.12 mL/kg bodyweight i.m. The monkey was placed inside the PET-scanner (Inveon PET/CT, Siemens Medical, Erlangen) and 25 MBq of the compound has been injected i.v. while PET-imaging was performed continuously from shortly before up to 60 minutes post injection. Venous blood samples were taken at 3, 10, 30 and 60 minutes p.i. and were measured in a gamma-counter (Automatic Gamma Counter Wizard^2 3, Perkin Elmer). Additionally, the blood-concentration of the compound was measured from the PET-Image over the whole imaging period (FIG. 4).

Another data set has as its system human thrombi. Description: Ex vivo blood flow model: binding to human thrombi, incl. competition with cold compound. To be noted: ± SEM. An excerpt: The binding of compounds to thrombi was further investigated in an ex vivo blood flow model similar to that described in “Wakhloo, A. K. et al. Thrombus and stroke 2008, in vitro models 57-66” but modified with regard to thrombus development. Briefly, an open handmade tube-set consisting of tygon-tubes (Tygon R-1000, part N^O AAU00007: I.D. 3.2 mm, O.D. 6.4 mm, Saint Gobain Performance Plastics North America), intermediate tubes (Intrafix® Infusion set, B. Braun, Melsungen, Germany) an open reservoir (10 mL Combitip, Eppendorf) and a chamber made of a piece of polyethylene-Tube, ([…] Polyethylene Tubing, Clay Adams, PE160, length: 6.5 cm) containing a loop of a roughened thread (fishing line: Okuma UltraMax whitefish, diameter: 0.14 mm, length: 5 cm; sandpaper: CAMI Grit designation: 600, CP918a, VSM) was used for thrombus formation. The connection between the intermediate tube and the thrombus chamber was made by trimmed tips (epTIPS, 200 μL, Eppendorff, Hamburg/Germany). The Reservoir and the thrombus chamber were fixed by clamps and stands. A peristaltic-pump (Minipuls 3, Gilson, Middelton/USA) was used to pump the blood around thereby adjusting the flow in the middle of the thrombus chamber to 70-90 cm per second, which was monitored by ultrasound Doppler measurement (Vevo 770 High-Resolution In Vivo Micro-Imaging System, VisualSonics, TorontoOntario, Canada; Scanhead: RMV 704, 40 MHz). The volume of the entire tube-set was 7.5 or 15 mL.
For each experiment fresh blood was taken from a volunteer using 10 mL citrate-tubes (Sarstedt S-Monovette 02.1067.001, 10 mL, Citrate 3.13%) and immediately laid into the turning-device of an incubator at a temperature of 37° C. (Heraeus miniTherm CTT with integrated rotation- and turning device, turning speed: 19 rotations per minute, Heraeus Instruments GmbH, Hanau/Germany). As needed, two tubes were taken out of the turning-device and 15 mL were transferred to a 20 mL Syringe (Omnifix®, B. Braun, Melsungen/Germany) and gently mixed with 0.75 mL CaCl2-Solution before the peristaltic pump was started and the whole content of the syringe was transferred into the reservoir of the tube-set via a cell strainer (BD Falcon™ cell strain, 40 μm, BD, Franklin Lakes, N.J. USA). After 7 minutes 1 MBq or 0.5 MBq (15 mL or 7.5 mL) of the compound was added to the reservoir by means of a pipette, thereby mixing the content gently with the tip of the pipette. The blood was left circulating for another 3 minutes. Then, the pump was stopped, aliquots were taken from the blood and the thrombus together with the roughened thread was removed from the thrombus-chamber before both was weighted and measured in a gamma counter (Automatic Gamma Counter Wizard^2 3, Perkin Elmer). Then the thrombus together with the thread was incubated in Plasmin-solution (Plasmin from Human Plasma, Sigma Aldrich, stock-solution: 500 μg in 500 μL 150 μM Tris-buffer (pH 7.8), 20 μL stock-solution to 230 μL saline solution 0.9%) for 48 hours to separate the platelets from the thread and to determine the netto weight of the thrombus. Finally the activity of the compound in blood and thrombus as well as the ratio between both was determined (cpm/weight [mg]).
To verify the specificity of the compound, a competition experiment was conducted in which the cold compound was added to the reservoir together with the hot compound. The final plasma concentration of the cold compound was 2.8 μM.

Data set [2] has as its system arterial and venous thrombi. As to the kind of experiment: Thrombus PET imaging and in vivo clot-to-blood ratio in cynomolgus monkeys. More on the design: species or system cynomolgus monkey. The protocol: The ability of the compound described in example 40 for the imaging of thrombi was investigated in a PET-study with cynomolgus monkeys (female, 2.8-3.2 kg).
The first monkey was anesthetized with a mixture of Xylazin (Rompun®, Bayer HealthCare, Leverkusen, Germany), 0.12 mL/Kg and Ketamine (Ketavet®, Pfizer) 0.12 mL/Kg b.w. i.m. and additionally analgesized by an i.m. injection of 6 μg Buprenorphine per kg. While the investigation, small amounts of Ketamine have been injected i.m. if required. The left common carotid artery was exposed surgically and a polyethylene-tube ([…] Polyethylene Tubing, Clay Adams, PE50), which was roughened previously by sandpaper (600—CAMI Grit designation), was inserted into the vessel, advanced into the descending aorta and was left there for 30 minutes to allow for the development of a thrombus on the rough surface of the tube. Meanwhile, the monkey was placed inside the PET-scanner (Inveon PET/CT, Siemens Medical, Erlangen). […] The thickness of this layer was far below 1 mm (see also removed thrombus of Monkey 2, FIG. 7) and therewith also far below the resolution of the image, which is approximately 1 mm. This also means, that even slightest thrombi, even if their size is far less than the resolution of the imaging-device, can be visualized due to the massive accumulation of compound on the platelets of the thrombi. At the end of the experiment the tube was removed carefully from the vessel before it was weighted and measured in a gamma counter (Automatic Gamma Counter Wizard^2 3, Perkin Elmer). Then the thrombus together with the tube was incubated in Plasmin-solution (Plasmin from Human Plasma, Sigma Aldrich, Plasmin-stock-solution: 500 μg Plasmin in 500 μL Tris-buffer (150 μM, pH 7.8), 20 μL Plasmin-stock-solution to 230 μL saline solution 0.9%) for 48 hours to separate the platelets from the tube and to determine the netto weight of the thrombus. Finally the activity of the compound in blood and thrombus as well as the ratio between the two was determined (cpm/weight [mg]).
The experiment was repeated with the same compound in another monkey with a slightly different preparation of the thrombogenic tube: This tube was roughened at only two short sections with a gap in between. Apart from that, the experimental design including the determination of the in vivo clot-to-blood ratio was as described above for monkey 1.
The experiment was repeated with the same compound in another monkey, but with the reduced dose of 15 MBq for the whole animal. In addition to the arterial catheter, this animal also received a venous catheter, also made of PE50-catheter-tube and roughened at some parts with gaps in between as described above. […]
The in vivo clot-to-blood ratio was determined from 5 thrombi out of the above described monkey experiments. As already mentioned above the thrombi had been removed from the vessels after imaging and had been weighted and measured in a gamma-counter (Automatic Gamma Counter Wizard^2 3, Perkin Elmer) together with blood samples taken from the animal. After incubation of the thrombi in Plasmin (Plasmin from Human Plasma, Sigma Aldrich, Plasmin-stock-solution: 500 μg Plasmin in 500 μL Tris-buffer (150 μM, pH 7.8), 20 μL Plasmin-stock-solution to 230 μL saline solution 0.9%) and removal of the thrombi from the catheter tubes, the netto weight of the thrombi was calculated and the concentration of the compound in thrombus (clot) and blood, as well as the ratio between the two was calculated.

`O=C(O)C[C@H](NC(=O)[C@@H]1CCCN(C(=O)CCC2CCNCC2)C1)c1cncc(OCC[18F])c1` [Example 40, (3S)-3-[5-(2-[^18F]Fluoroethoxy)pyridin-3-yl]-3-[({(3R)-1-[3-(piperidin-4-yl)propanoyl]piperidin-3-yl}carbonyl)amino]propanoic acid]: in data set [1] (25 MBq i.v., up to 60 minutes p.i.), the blood clearance entry is on record as “rapidly cleared from the blood; also recorded: rapidly eliminated from the blood”. Besides, in data set [1] (PET), the “contrast in the brain” value is given as “completely free of contrast” and the “signal in other tissue” value is reported as “only marginal signal visible in any other tissue”. The “in vitro clot-to-blood ratio” value in the data set on human thrombi (3 minutes post-injection of 18F-labeled compound) was 71 ± 4 (n = 3). Moreover, in the data set on human thrombi (3 minutes post-injection of 18F-labeled compound, without cold compound), the “Accumulation Thrombus” value is recorded as 202 ± 11 (n = 3) 10^3 cpm/mg. The Thrombus competition with human thrombi (cold compound added with hot compound, final plasma concentration 2.8 μM, 3 minutes) is 8 ± 1 (n = 3) 10^3 cpm/mg. Besides, the “retention within the thrombus” value in data set [2] (60 minutes were shown) is listed as “almost completely remains within the thrombus”. In addition, in data set [2] (blood sample of the animal, Cynomolgus monkey), the Blood is 90 cpm/mg and 130 cpm/mg and 100 cpm/mg. Further, the “Clot/Blood mean (in vivo clot-to-blood ratio)” value in data set [2] (mean of 5 thrombi, sd 52) is 126+/−52 and 126. Also, in data set [2] (monkeys, PET), the “background in surrounding tissue or organ” value is recorded as “almost no background in any surrounding tissue or organ”. In addition, the “accumulation in venous and arterial thrombi” value in data set [2] (monkeys, PET, 15-25 MBq i.v.) is on record as “surprisingly high accumulation”.
